Measurements from US20260356869A1, “TRANSITION METAL COMPLEXES FOR MRI APPLICATIONS AND METHODS OF USE” (Yale University, priority 2022, published 2026).
Like-named read-outs stand apart in the source and are kept apart here.

How the values were obtained:
[1] = BIRDS characterization: pH and temperature sensitivity of non-exchangeable (and -NH) proton chemical shifts by 1H NMR; format: physicochemical; settings: for T sensitivity, -NH proton: -NH proton (exchangeable), 298 K to 318 K
Experimental: (§1) The synthesized complexes are characterized for water proton relaxivities with different concentrations of complexes, as well as their proton sensing (with BIRDS and CEST) and sodium sensing (with ^23Na-MRSI) properties on a Bruker AVANCE III HD 500 vertical-bore spectrometer (Bruker, Billerica, MA, USA) interfaced with Bruker TopSpin v3.2 software.
The chemical shifts of proton resonances are measured relative to the water resonance (4.7 ppm). Temperature and pH sensitive non-exchangeable proton resonances in each complex are chosen for BIRDS detection. The temperature and pH dependences of proton chemical shifts are fitted to second-order polynomial equations:
δ=a+b pH+cT+dpH^2+eT^2+f pHT Eq. 1
Where, the coefficients a-f are obtained from the fit. The relaxation times (T1 and T2) of these resonances are measured at 35 °C using typical inversion-recovery and spin-echo methods, respectively.

[2] = 23Na-NMR sodium sensing (shiftability and broadening); format: physicochemical; settings: 150 mM NaCl; for Shiftability (Sc): negative = downfield, positive = upfield from unshifted sodium signal
Excerpt: as §1
Sodium-23 (^23Na), which has 100% natural abundance, is also visible by magnetic resonance (I=3/2) and provides the second-strongest signal among biological ions after proton. […] Sodium (Na^+) concentration is normally low intracellularly (~10 mM) and high in blood and extracellular spaces (~150 mM), producing a strong transmembrane Nat gradient (ΔNa^+mem≈140 mM) and a weak transendothelial Na^+ gradient (ΔNa^+end≈0 mM). Distributions of sodium ion (Na^+) across biological membranes are tightly regulated, and thus variations of Nat across compartments often imply pathological states.
In vitro experiments are performed using concentric NMR tubes (spherical and cylindrical; Wilmad-LabGlass, Vineland, NJ, USA). One compartment (inner) contained 150 mM NaCl and the other (outer) contained the same but with varying amounts of transition metal complexes and 10% v/v ^2H2O to lock the spectrometer frequency using the ^2H2O signal. Each solution is pH-adjusted using HCl or KOH to give five different pH values. ^23Na-NMR spectra are collected on the same Bruker system as for ^1H NMR. […] Spectra are analyzed applying 10 Hz line broadening and manual zeroth- and first-order phasing. The chemical shift and line width of the shifted peak are measured using the “peakw” function on TopSpin.

[3] = literature value, cited from earlier work
[4] = reported value, cited from earlier work; for Shiftability (Sc): negative = downfield, positive = upfield from unshifted sodium signal
[5] = 10 mM, pH 6.2-8.0, 298 K to 318 K, 11.7 T
[6] = proton B, 10 mM, pH 6.2-8.0, 298 K to 318 K, 11.7 T
[7] = proton A (@56), comparator thulium complex
[8] = proton B (@23), comparator thulium complex
[9] = proton C (@-20), comparator thulium complex

SMILES: O=C(CN1CCN(CC(=O)NCP(=O)(O)O)CCN(CC(=O)NCP(=O)(O)O)CCN(CC(=O)NCP(=O)(O)O)CC1)NCP(=O)(O)O.[Co+2] [CoDOTA-4AMP^6-]
- T sensitivity, -NH proton ([1]; 11.7 T): 0.161 ppm/° C.
- T sensitivity, non-exchangeable proton A [1, 5]: 0.576 ppm/° C.
- Broadening (βc) [2]: 0.022 ppm/mM
- Shiftability (Sc) [2]: -0.172 ppm/mM

SMILES: O=P(O)(O)CN1CCN(CP(=O)(O)O)CCN(CP(=O)(O)O)CCN(CP(=O)(O)O)CC1.[Co+2] [CODOTP^6-]
- T sensitivity, non-exchangeable proton A [1, 5]: 0.434 ppm/° C.
- pH sensitivity, non-exchangeable proton A [1, 5]: 6.0 ppm/pH unit
- T sensitivity, non-exchangeable proton B [1, 6]: 0.234 ppm/° C.
- pH sensitivity, non-exchangeable proton B [1, 6]: 1.42 ppm/pH unit
- T sensitivity, non-exchangeable proton C [1, 5]: 0.186 ppm/° C.
- Broadening (βc) [2]: 0.016 ppm/mM
- Shiftability (Sc) [2]: -0.207 ppm/mM

SMILES: O=P(O)(O)CN1CCN(CP(=O)(O)O)CCN(CP(=O)(O)O)CCN(CP(=O)(O)O)CC1.[Fe+2] [FeDOTP^6-]
- T sensitivity, non-exchangeable proton A [1, 5]: 0.345 ppm/° C.
- T sensitivity, non-exchangeable proton B [1, 6]: 0.130 ppm/° C.
- T sensitivity, non-exchangeable proton C [1, 5]: 0.045 ppm/° C.
- Broadening (βc) [2]: 0.023 ppm/mM
- Shiftability (Sc) [2]: +0.688 ppm/mM

SMILES: O=C(CN1CCN(CC(=O)NCP(=O)(O)O)CCN(CC(=O)NCP(=O)(O)O)CCN(CC(=O)NCP(=O)(O)O)CC1)NCP(=O)(O)O.[Tm+3] [TmDOTA-4AMP^5-]
- T sensitivity, non-exchangeable proton H1 ([3]; proton H1): 0.54 ppm/° C.
- pH sensitivity, non-exchangeable proton H1 ([3]; proton H1): 1.8 ppm/pH unit
- T sensitivity, non-exchangeable proton H2 [3]: -0.24 ppm/° C.
- pH sensitivity, non-exchangeable proton H2 [3]: -0.63 ppm/pH unit
- T sensitivity, non-exchangeable proton H3 [3]: -0.188 ppm/° C.
- pH sensitivity, non-exchangeable proton H3 [3]: -0.25 ppm/pH unit
- T sensitivity, non-exchangeable proton H4 ([3]; proton H4): -1.49 ppm/° C.
- pH sensitivity, non-exchangeable proton H4 ([3]; proton H4): -3.9 ppm/pH unit
- T sensitivity, non-exchangeable proton H6 [3]: 0.45 ppm/° C.
- pH sensitivity, non-exchangeable proton H6 [3]: 1.2 ppm/pH unit
- T sensitivity, non-exchangeable proton H8 ([3]; proton H8): 0.170 ppm/° C.
- pH sensitivity, non-exchangeable proton H8 ([3]; proton H8): -4.0 ppm/pH unit

SMILES: O=P(O)(O)CN1CCN(CP(=O)(O)O)CCN(CP(=O)(O)O)CCN(CP(=O)(O)O)CC1.[Tm+3] [TmDOTP^5-]
- Broadening (βc) [4]: 0.042 ppm/mM
- Shiftability (Sc) [4]: -2.03 ppm/mM
- T sensitivity, non-exchangeable proton H2 [3]: -0.6 ppm/° C.
- pH sensitivity, non-exchangeable proton H2 [3]: 4.2 ppm/pH unit
- T sensitivity, non-exchangeable proton H3 [3]: -0.5 ppm/° C.
- pH sensitivity, non-exchangeable proton H3 [3]: 3.6 ppm/pH unit
- T sensitivity, non-exchangeable proton H6 [3]: 1.1 ppm/° C.
- pH sensitivity, non-exchangeable proton H6 [3]: -3.9 ppm/pH unit

SMILES: O=P(O)(O)CN1CCN(CP(=O)(O)O)CCN(CP(=O)(O)O)CC1.[Tm+3] [TmNOTP^3-]
- T sensitivity, non-exchangeable proton A (@56) [1, 7]: 0.351 ppm/° C.
- pH sensitivity, non-exchangeable proton A (@56) [1, 7]: -2.58 ppm/pH unit
- T sensitivity, non-exchangeable proton B (@23) [1, 8]: 0.140 ppm/° C.
- pH sensitivity, non-exchangeable proton B (@23) [1, 8]: -0.56 ppm/pH unit
- T sensitivity, non-exchangeable proton C (@-20) [1, 9]: -0.250 ppm/° C.
- pH sensitivity, non-exchangeable proton C (@-20) [1, 9]: 1.88 ppm/pH unit
- Broadening (βc) [4]: 0.018 ppm/mM
- Shiftability (Sc) [4]: -0.568 ppm/mM

SMILES: O=P(O)(O)CN1CCN(CP(=O)(O)O)CCN(CP(=O)(O)O)CCN(CP(=O)(O)O)CC1.[Gd+3] [GdDOTP^5-]
- Broadening (βc) [4]: 0.036 ppm/mM
- Shiftability (Sc) [4]: -0.040 ppm/mM

SMILES: O=C(CN1CCN(CC(=O)NCP(=O)(O)O)CCN(CC(=O)NCP(=O)(O)O)CCN(CC(=O)NCP(=O)(O)O)CC1)NCP(=O)(O)O.[Fe+2] [FeDOTA-4AMP^6-]
- T sensitivity, -NH proton ([1]; 11.7 T): 0.158 ppm/° C.
- T sensitivity, non-exchangeable proton A [1, 5]: 0.413 ppm/° C.
- T sensitivity, non-exchangeable proton E ([1]; proton E, 10 mM, pH 6.2-8.0, 298 K to 318 K, 11.7 T): -0.306 ppm/° C.
- Broadening (βc) [2]: 0.020 ppm/mM
- Shiftability (Sc) [2]: -0.477 ppm/mM

SMILES: O=P(O)(O)CN1CCN(CP(=O)(O)O)CCN(CP(=O)(O)O)CC1.[Fe+2] [FeNOTP^4-]
- T sensitivity, non-exchangeable proton A [1, 5]: 0.240 ppm/° C.
- T sensitivity, non-exchangeable proton B [1, 6]: 0.149 ppm/° C.
- Broadening (βc) [2]: 0.015 ppm/mM
- Shiftability (Sc) [2]: +0.318 ppm/mM

SMILES: O=P(O)(O)CN1CCN(CP(=O)(O)O)CCN(CP(=O)(O)O)CC1.[Co+2] [CONOTP^4-]
- T sensitivity, non-exchangeable proton A [1, 5]: 0.948 ppm/° C.
- pH sensitivity, non-exchangeable proton A [1, 5]: 6.20 ppm/pH unit
- Broadening (βc) [2]: 0.013 ppm/mM
- Shiftability (Sc) [2]: +0.140 ppm/mM

SMILES: O=P(O)(O)CN1CCN(CP(=O)(O)O)CCN(CP(=O)(O)O)CC1.[Gd+3] [GdNOTP^3-]
- Broadening (βc) [4]: 0.0117 ppm/mM
- Shiftability (Sc) [4]: -0.0435 ppm/mM
